Laboratory results from patent US20240016805A1, “THERAPEUTIC METHODS AND COMPOSITIONS FOR TREATING PANCREATIC CANCER USING DEVIMISTAT” (Cornerstone Pharmaceuticals, Inc., priority 2020, published 2024).

Tests used:
[1] = Compatibility of devimistat with IV infusion sets, IV bags and syringes; type: physicochemical
Experimental: Therefore, DEHP-containing IV infusion sets, IV bags or syringes should not be used in mixing or administration of devimistat.
A compatibility study has been conducted showing that devimistat is compatible with 4 commonly used IV infusion sets. Therefore, these 4 types of IV infusion sets, and IV infusion sets that are made with the same materials, can be used to administer devimistat.
Compatibility studies have shown that devimistat drug product (50 mg/mL), and drug product diluted with D5W to various concentrations (1.6-25 mg/mL) are compatible with various types of syringes, as listed below. Therefore, any of these types of syringes, and syringes that are made with the same materials, can be used to administer devimistat. Also, glass syringes can also be used, since glass (such as glass containers) is compatible with devimistat drug product. • Norm-Ject, polyethylene barrel, polyethylene plunger, latex free (Henke Sass Wolf GMBH) syringes • Becton Dickinson syringes • Terumo syringes • Monoject syringes • Glass syringes

[2] = tested on: metastatic pancreatic cancer; conditions: cited from earlier work
[3] = Adverse events and potential risks attributed to the study drugs; type: in vivo; conditions: expected adverse event
Text: Probably related: Creatinine (expected Adverse Event).
Attribution is the relationship between an adverse event or serious adverse event and the study drug. Attribution will be assigned as follows: • Definite—The AE is clearly related to the study drug. • Probable—The AE is likely related to the study drug. • Possible—The AE may be related to the study drug. • Unlikely—The AE is doubtfully related to the study drug. • Unrelated—The AE is clearly NOT related to the study drug.

[4] = Animal studies of IV administration of devimistat (acute toxicity, local inflammation); type: in vivo
Experimental: Devimistat must be administered IV, via an IV catheter that is free flowing and free of air in the dead space of the IV catheter, to minimize vascular irritation, inflammation and acute toxicity of devimistat (Study NCL-049). […] To avoid local reactions at and around the site of administration, devimistat must be administered via a central venous catheter.
Devimistat must not be administered as a bolus, but by infusion, at a rate of ˜4 mL/min, via a central venous catheter with D5W running at a rate of about 125-150 mL/hr. This is to minimize potential acute toxicity of devimistat, according to animal studies.

[5] = tested on: advanced pancreatic cancer; conditions: gemcitabine vs. fluorouracil (Burris 1997); cited from earlier work
[6] = tested on: metastatic pancreatic cancer; conditions: metastatic pancreatic cancer (Conroy 2011); cited from earlier work
metastatic PDA = conditions: patients with metastatic PDA (Von Hoff 2013); cited from earlier work
[7] = 18 patients who received the MTD, with mFOLFIRINOX

Structure (SMILES)	compatibility with IV infusion sets ([1]; 4 commonly used IV infusion sets (PVC, latex, polyethylene))	leaching of DEHP ([1]; DEHP-containing IV infusion sets and IV bags)	Grade 1-2 toxicity observed [2, 7]	common grade 3/4 toxicities [2, 7]	specific risks attributed beyond the toxicities associated with mFOLFIRINOX ([2]; pilot Phase 1 study)	adverse events probably related [3]	effect of accidental co-administration of extra air in the dead space of IV catheters ([4]; animal studies, IV administration)	effect of accidental leakage into the perivascular space during IV administration ([4]; in vivo, iv)	overall survival [5] [months]	PFS [6] [months]	overall survival [6] [months]	partial response rate [6] [%]	overall survival (metastatic PDA) [months]	progression free survival (PFS) (metastatic PDA) [months]
O=C(O)CCCCC(CCSCc1ccccc1)SCc1ccccc1 (stereo not drawn) [devimistat, 6,8-bis(benzylsulfanyl)octanoic acid]	compatible	can cause leaching of DEHP	sensory neuropathy	hypokalemia, diarrhea, abdominal pain, hyperglycemia, peripheral neuropathy, neutropenia, lymphopenia, anemia, and thrombocytopenia	no specific risks that have been definitively observed and attributed to devimistat	Creatinine	potential to induce acute toxicity	can induce significant local inflammation	–	–	–	–	–	–
Nc1ccn([C@@H]2O[C@H](CO)[C@@H](O)C2(F)F)c(=O)n1 [gemcitabine]	–	–	–	–	–	–	–	–	5.6	3.3	6.8	9	6.7	3.7
O=c1[nH]cc(F)c(=O)[nH]1 [fluorouracil, 5-fluoro-1H-pyrimidine-2,4-dione]	–	–	–	–	–	–	–	–	4.4	–	–	–	–	–
